Source: ChEMBL document CHEMBL1135237, “Synthesis and antibacterial activity of linezolid analogues” (2002)
In brackets after ≈: the same amount, converted by molar mass.

What was measured:
Format in all cases: functional
[1] = system: Enterococcus faecalis; test: Compound was evaluated for minimum inhibitory concentration against Enterococcus faecalis 68
[2] = system: Enterococcus faecalis; test: Compound was evaluated for minimum inhibitory concentration against Enterococcus faecalis 50
[3] = system: Streptococcus pyogenes; test: Compound was evaluated for minimum inhibitory concentration against Streptococcus pyogenes 102 strain
[4] = system: Streptococcus pyogenes; test: Compound was evaluated for minimum inhibitory concentration against Streptococcus pyogenes 114 strain
[5] = system: Streptococcus sp.; test: Compound was evaluated for minimum inhibitory concentration against Streptococcus A 29 strain
[6] = system: Streptococcus sp.; test: Compound was evaluated for minimum inhibitory concentration against Streptococcus A 44 strain
[7] = system: Staphylococcus aureus; test: Compound was evaluated for minimum inhibitory concentration against Staphylococcus aureus 9616 strain
[8] = system: Staphylococcus aureus; test: Compound was evaluated for minimum inhibitory concentration against Staphylococcus aureus 966 strain
[9] = system: Staphylococcus aureus; test: Compound was evaluated for minimum inhibitory concentration against Staphylococcus aureus 9721 strain
[10] = system: Staphylococcus aureus; test: Compound was evaluated for minimum inhibitory concentration against Staphylococcus aureus 975 strain
[11] = system: Staphylococcus aureus; test: Compound was evaluated for minimum inhibitory concentration against Staphylococcus aureus 9776 strain
[12] = system: Staphylococcus epidermidis; test: Compound was evaluated for minimum inhibitory concentration against Staphylococcus epidermidis 975 strain
[13] = system: Staphylococcus epidermidis; test: Compound was evaluated for minimum inhibitory concentration against Staphylococcus epidermidis 9759 strain
[14] = system: Streptococcus pneumoniae; test: Compound was evaluated for minimum inhibitory concentration against Streptococcus pneumoniae 9753 strain
[15] = system: Streptococcus pneumoniae; test: Compound was evaluated for minimum inhibitory concentration against Streptococcus pneumoniae 9757 strain
[16] = system: Streptococcus pneumoniae; test: Compound was evaluated for minimum inhibitory concentration against Streptococcus pneumoniae 9798 strain
[17] = system: Staphylococcus epidermidis; test: Compound was evaluated for minimum inhibitory concentration against Staphylococcus epidermidis 9753 strain
[18] = system: Enterococcus faecalis; test: Compound was evaluated for minimum inhibitory concentration against Enterococcus faecalis 50 strain

Row | MIC [1] [µg/mL] | MIC [2] [µg/mL] | MIC [3] [µg/mL] | MIC [4] [µg/mL] | MIC [5] [µg/mL] | MIC [6] [µg/mL] | MIC [7] [µg/mL] | MIC [8] [µg/mL] | MIC [9] [µg/mL] | MIC [10] [µg/mL] | MIC [11] [µg/mL] | MIC [12] [µg/mL] | MIC [13] [µg/mL] | MIC [14] [µg/mL] | MIC [15] [µg/mL] | MIC [16] [µg/mL] | MIC [17] [µg/mL] | Compound | MIC [18] [µg/mL]
1 | 32 (≈ 63.7 µM) | 8 (≈ 15.9 µM) | 32 (≈ 63.7 µM) | 16 (≈ 31.8 µM) | 4 (≈ 7.96 µM) | 32 (≈ 63.7 µM) | 8 (≈ 15.9 µM) | 8 (≈ 15.9 µM) | 16 (≈ 31.8 µM) | 4 (≈ 7.96 µM) | 8 (≈ 15.9 µM) | 8 (≈ 15.9 µM) | 16 (≈ 31.8 µM) | 4 (≈ 7.96 µM) | 4 (≈ 7.96 µM) | 8 (≈ 15.9 µM) | 4 (≈ 7.96 µM) | CC(=O)NC[C@H]1CN(c2ccc(N3CCN(C(c4ccccc4)c4ccccc4)CC3)c(F)c2)C(=O)O1 | 
2 |  | 1 (≈ 2.26 µM) | 1 (≈ 2.26 µM) | 2 (≈ 4.52 µM) | 1 (≈ 2.26 µM) | 1 (≈ 2.26 µM) | 1 (≈ 2.26 µM) | 2 (≈ 4.52 µM) | 1 (≈ 2.26 µM) | 1 (≈ 2.26 µM) | 1 (≈ 2.26 µM) | 1 (≈ 2.26 µM) | 1 (≈ 2.26 µM) | 1 (≈ 2.26 µM) | 1 (≈ 2.26 µM) | 1 (≈ 2.26 µM) | 1 (≈ 2.26 µM) | COc1ccc(N2CCN(c3ccc(N4C[C@H](CNC(C)=O)OC4=O)cc3F)CC2)cc1 | 
3 | 2 (≈ 4.85 µM) | 1 (≈ 2.42 µM) | 1 (≈ 2.42 µM) | 1 (≈ 2.42 µM) | 0.5 (≈ 1.21 µM) | 2 (≈ 4.85 µM) | 1 (≈ 2.42 µM) | 2 (≈ 4.85 µM) | 1 (≈ 2.42 µM) | 1 (≈ 2.42 µM) | 1 (≈ 2.42 µM) | 1 (≈ 2.42 µM) | 1 (≈ 2.42 µM) | 0.5 (≈ 1.21 µM) | 0.25 (≈ 0.606 µM) | 1 (≈ 2.42 µM) | 0.5 (≈ 1.21 µM) | CC(=O)NC[C@H]1CN(c2ccc(N3CCN(c4ccccc4)CC3)c(F)c2)C(=O)O1 | 
4 | 4 (≈ 9.29 µM) | 1 (≈ 2.32 µM) | 1 (≈ 2.32 µM) | 2 (≈ 4.65 µM) | 1 (≈ 2.32 µM) | 1 (≈ 2.32 µM) | 2 (≈ 4.65 µM) | 1 (≈ 2.32 µM) | 1 (≈ 2.32 µM) | 0.5 (≈ 1.16 µM) | 1 (≈ 2.32 µM) | 1 (≈ 2.32 µM) | 1 (≈ 2.32 µM) | 1 (≈ 2.32 µM) | 1 (≈ 2.32 µM) | 1 (≈ 2.32 µM) | 0.5 (≈ 1.16 µM) | CC(=O)NC[C@H]1CN(c2ccc(N3CCN(c4ccc(F)cc4)CC3)c(F)c2)C(=O)O1 | 

Row | Compound | MIC [1] [µg/mL] | MIC [2] [µg/mL] | MIC [3] [µg/mL] | MIC [4] [µg/mL] | MIC [5] [µg/mL] | MIC [6] [µg/mL] | MIC [7] [µg/mL] | MIC [8] [µg/mL] | MIC [9] [µg/mL] | MIC [10] [µg/mL] | MIC [11] [µg/mL] | MIC [12] [µg/mL] | MIC [13] [µg/mL] | MIC [14] [µg/mL] | MIC [15] [µg/mL] | MIC [16] [µg/mL] | MIC [17] [µg/mL] | MIC [18] [µg/mL]
5 | CC(=O)NC[C@H]1CN(c2ccc(N3CCOCC3)c(F)c2)C(=O)O1 [LINEZOLID] |  |  | 0.5 (≈ 1.48 µM) | 0.5 (≈ 1.48 µM) | 0.25 (≈ 0.741 µM) | 0.5 (≈ 1.48 µM) | 1 (≈ 2.96 µM) | 0.5 (≈ 1.48 µM) | 0.5 (≈ 1.48 µM) | 0.25 (≈ 0.741 µM) | 0.5 (≈ 1.48 µM) | 0.5 (≈ 1.48 µM) | 0.5 (≈ 1.48 µM) |  |  |  | 0.25 (≈ 0.741 µM) | 0.5 (≈ 1.48 µM)
